Laboratory results as given in patent US20160145257A1, “SUBSTITUTED XANTHINES AND METHODS OF USE THEREOF” (Hydra Biosciences, Inc., priority 2013, published 2016).

Target: T1, hTRPC5 (Homo sapiens, UniProt Q9UL62)
T1 construct: expressed in transfected cells; host or cells: HEK293 TREx cells with inducible TRPC5 expression
T1 sequence (Q9UL62 1-973): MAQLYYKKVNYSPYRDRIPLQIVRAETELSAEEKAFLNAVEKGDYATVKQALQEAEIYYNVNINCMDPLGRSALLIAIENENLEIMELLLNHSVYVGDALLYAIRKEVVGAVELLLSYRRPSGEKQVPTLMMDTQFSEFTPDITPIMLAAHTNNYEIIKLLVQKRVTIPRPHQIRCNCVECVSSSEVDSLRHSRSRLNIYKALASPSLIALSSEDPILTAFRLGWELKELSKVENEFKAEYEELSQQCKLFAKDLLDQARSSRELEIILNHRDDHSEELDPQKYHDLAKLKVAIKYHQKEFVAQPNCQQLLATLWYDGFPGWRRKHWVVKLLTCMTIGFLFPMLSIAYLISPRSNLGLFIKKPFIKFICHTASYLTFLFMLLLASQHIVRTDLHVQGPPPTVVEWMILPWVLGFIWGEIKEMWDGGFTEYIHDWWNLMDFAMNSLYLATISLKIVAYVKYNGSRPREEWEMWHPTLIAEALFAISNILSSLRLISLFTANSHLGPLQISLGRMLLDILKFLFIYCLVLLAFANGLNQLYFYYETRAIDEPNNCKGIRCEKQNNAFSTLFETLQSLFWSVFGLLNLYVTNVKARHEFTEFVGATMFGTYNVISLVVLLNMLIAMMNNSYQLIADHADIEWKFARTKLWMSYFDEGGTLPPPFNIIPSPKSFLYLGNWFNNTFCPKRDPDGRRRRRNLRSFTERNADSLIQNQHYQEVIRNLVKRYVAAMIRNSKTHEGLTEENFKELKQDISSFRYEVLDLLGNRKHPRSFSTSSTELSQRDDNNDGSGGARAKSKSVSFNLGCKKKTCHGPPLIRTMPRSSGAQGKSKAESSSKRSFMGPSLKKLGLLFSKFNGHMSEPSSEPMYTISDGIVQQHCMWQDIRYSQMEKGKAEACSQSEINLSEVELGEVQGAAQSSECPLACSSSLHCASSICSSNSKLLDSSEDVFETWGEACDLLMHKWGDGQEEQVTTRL
Test: Whole-cell patch clamp, block of LaCl3-activated TRPC5 inward current
Assay type: cell-based
Settings: TRPC5-expressing HEK293 TREx cells, 80 μM LaCl3, inward current, IC50 estimated from 5 μM and 500 nM, read-out: hTRPC5 Patch La3+ Inwd (nM) (All Batches)
Experimental: In certain embodiments, exemplary compounds of Formula I and Formula II include the compounds described in Table 1 and in the Examples. A compound described herein may be tested for its ability to block both inward and outward currents through the TRPC5 channel, e.g., by an assay as described in Example 1. For example, IC50 of a compound of Formula I or Formula II was estimated by testing the compound at 5 μM and 500 nM. […] IC50 for a compound of Formula I or Formula II between 500 nM and 5 μM was similarly estimated. As shown, “A” refers to an IC50<100 nM. “B” refers to an IC50 between 100 nM and 500 nM. “C” refers to an IC50 between 500 nM and 1000 nM. “D” refers to an IC50 between 1 μM and 2 μM. “E” refers to an IC50 between 2 μM and 10 μM. “F” refers to […]. “ND” refers to compounds wherein the IC50 was not determined.
Patch clamp experiments permit the detection of currents through the TRPC5 channel in the cell line described above. In normal whole-cell patch clamp recordings, a glass electrode is brought into contact with a single cell and a high-resistance (gigaohm) seal is established with the cell membrane. The membrane is then ruptured to achieve the whole-cell configuration, permitting control of the voltage of the cell membrane and measurement of currents flowing across the membrane using the amplifier attached to the electrode and resulting in the replacement of cytoplasm with the pipette solution. A perfusion system permits control of the extracellular solution, including the addition of blockers and activators of the current. The current can be activated by including 1.4 μM free Ca^2+ in the pipette (intracellular) solution, and 80 μM LaCl3 in the extracellular solution.
TRPC5 cells were induced 20-48 hours, removed from growth plates, and replated at low density (to attain good single-cell physical separation) on glass coverslips for measurement. In some cases, cells were grown in low density overnight on glass coverslips. Patch clamp recordings were made in the whole-cell mode with a holding potential of −40 mV. Every 5 seconds, a voltage ramp was applied from −120 to +100 mV, 400 ms in duration. Currents elicited were quantified at −80 mV and +80 mV. The internal solution consisted of 140 mM cesium aspartate, 10 mM HEDTA, 2 mM CaCl2, 2.27 mM MgCl2 and 10 mM HEPES, pH 7.2, with 1,400 nM calculated free Ca^2+. The external solution consisted of 150 mM NaCl, 4.5 mM KCl, 1 mM MgCl2, 2 mM CaCl2, 10 mM HEPES, 10 mM glucose, 1 mM EGTA, pH 7.4. Upon addition of LaCl3, TRPC5 current was induced only in TRPC5-expressing cells and not in parental HEK293 TREx cells. Removal of the LaCl3 stimulus causes most of the current to go away. Potential blockers were tested for ability to block both inward and outward currents in the continued presence of LaCl3.
IC50 of a compound of Formula I or Formula II was estimated by testing the compound at 5 μM and 500 nM. […] IC50 for a compound of Formula I or Formula II between 500 nM and 5 μM was similarly estimated.

Q: For `CCC(=O)CSc1nc2c(c(=O)n(C)c(=O)n2C)n1Cc1cccc(Br)c1` [Compound 1, 7-(3-bromobenzyl)-1,3-dimethyl-8-(2-oxobutylthio)-1H-purine-2,6(3H,7H)-dione], which IC50 is on record?
A: The IC50 was 500 to 1000 nM.

Q: For `Cn1c(=O)c2c(nc(SC(C)(C)C(=O)OC(C)(C)C)n2Cc2cccc(Br)c2)n(C)c1=O` [Compound 3, Tert-butyl 2-(7-(3-bromobenzyl)-1,3-dimethyl-2,6-dioxo-2,3,6,7-tetrahydro-1H-purin-8-ylthio)-2-methylpropanoate], which IC50 is on record?
A: Its IC50 is 100 to 500 nM.

Q: How did the IC50 turn out when `CC(O)CSc1nc2c(c(=O)n(C)c(=O)n2C)n1Cc1cccc(Br)c1` (centres unmarked) [Compound 5] was run?
A: The IC50 was 2000 to 10000 nM.

Q: Which IC50 does the source give for `CCOCCSc1nc2c(c(=O)n(C)c(=O)n2C)n1Cc1cccc(Br)c1` [Compound 6, 7-(3-bromobenzyl)-8-(2-ethoxyethylthio)-1,3-dimethyl-1H-purine-2,6(3H,7H)-dione] here?
A: Its IC50 is 100 to 500 nM.

Q: With `Cn1c(=O)c2c(nc(SCC#N)n2Cc2cccc(Br)c2)n(C)c1=O` [Compound 7] as the compound, how does the IC50 read?
A: The IC50 was 2000 to 10000 nM.

Q: For `Cn1c(=O)c2c(nc(SCc3ncc[nH]3)n2Cc2cccc(Br)c2)n(C)c1=O` [Compound 8], which IC50 is on record?
A: The IC50 was 2000 to 10000 nM.

Q: Which IC50 does the source give for `CCOC(=O)C(C)(C)Sc1nc2c(c(=O)n(C)c(=O)n2C)n1Cc1cccc(Br)c1` [Compound 9, Ethyl 2-(7-(3-bromobenzyl)-1,3-dimethyl-2,6-dioxo-2,3,6,7-tetrahydro-1H-purin-8-ylthio)-2-methylpropanoate] here?
A: The IC50 was < 100 nM.

Q: How did the IC50 turn out when `Cn1c(=O)c2c(nc(SCc3cccnc3)n2Cc2cccc(Br)c2)n(C)c1=O` [Compound 10, 7-(3-bromobenzyl)-1,3-dimethyl-8-(pyridin-3-ylmethylthio)-1H-purine-2,6(3H,7H)-dione] was run?
A: The IC50 was 2000 to 10000 nM.

Q: Which IC50 does the source give for `Cn1c(=O)c2c(nc(SCc3ccncc3)n2Cc2cccc(Br)c2)n(C)c1=O` [Compound 11, 7-(3-bromobenzyl)-1,3-dimethyl-8-(pyridin-4-ylmethylthio)-1H-purine-2,6(3H,7H)-dione] here?
A: Its IC50 is 2000 to 10000 nM.

Q: How did the IC50 turn out when `Cn1c(=O)c2c(nc(SCc3ccccn3)n2Cc2cccc(Br)c2)n(C)c1=O` [Compound 12, 7-(3-bromobenzyl)-1,3-dimethyl-8-(pyridin-2-ylmethylthio)-1H-purine-2,6(3H,7H)-dione] was run?
A: The IC50 was 500 to 1000 nM.

Q: `CCCC(=O)CSc1nc2c(c(=O)n(C)c(=O)n2C)n1Cc1cccc(Br)c1` [Compound 13, 7-(3-bromobenzyl)-1,3-dimethyl-8-(2-oxopentylthio)-1H-purine-2,6(3H,7H)-dione] was tested. Which IC50 did it give?
A: The IC50 was < 100 nM.

Q: With `CCOCCS(=O)(=O)c1nc2c(c(=O)n(C)c(=O)n2C)n1Cc1cccc(Br)c1` [Compound 14, 7-(3-bromobenzyl)-8-(2-ethoxyethylsulfonyl)-1,3-dimethyl-1H-purine-2,6(3H,7H)-dione] as the compound, how does the IC50 read?
A: Its IC50 is 1000 to 2000 nM.

Q: With `CCOCC[S+]([O-])c1nc2c(c(=O)n(C)c(=O)n2C)n1Cc1cccc(Br)c1` (centres unmarked) [Compound 15] as the compound, how does the IC50 read?
A: Its IC50 is 2000 to 10000 nM.

Q: With `CCOCCSc1nc2c(c(=O)n(C)c(=O)n2C)n1Cc1cccc(Cl)c1` [Compound 16] as the compound, how does the IC50 read?
A: Its IC50 is 2000 to 10000 nM.

Q: How did the IC50 turn out when `COCCOCCSc1nc2c(c(=O)n(C)c(=O)n2C)n1Cc1cccc(Br)c1` [Compound 17, 7-(3-bromobenzyl)-8-(2-(2-methoxyethoxy)ethylthio)-1,3-dimethyl-1H-purine-2,6(3H,7H)-dione] was run?
A: The IC50 was 100 to 500 nM.

Q: Which IC50 does the source give for `CCOCCOc1nc2c(c(=O)n(C)c(=O)n2C)n1Cc1cccc(Br)c1` [Compound 18, 7-(3-bromobenzyl)-8-(2-ethoxyethoxy)-1,3-dimethyl-1H-purine-2,6(3H,7H)-dione] here?
A: The IC50 was 1000 to 2000 nM.

Q: For `COCCCSc1nc2c(c(=O)n(C)c(=O)n2C)n1Cc1cccc(Br)c1` [Compound 19, 7-(3-bromobenzyl)-8-(3-methoxypropylthio)-1,3-dimethyl-1H-purine-2,6(3H,7H)-dione], which IC50 is on record?
A: Its IC50 is 100 to 500 nM.

Q: Which IC50 does the source give for `CCc1coc(CSc2nc3c(c(=O)n(C)c(=O)n3C)n2Cc2cccc(Br)c2)n1` [Compound 20, 7-(3-bromobenzyl)-8-((4-ethyloxazol-2-yl)methylthio)-1,3-dimethyl-1H-purine-2,6(3H,7H)-dione] here?
A: Its IC50 is 100 to 500 nM.

Q: For `CCOCCNc1nc2c(c(=O)n(C)c(=O)n2C)n1Cc1cccc(Br)c1` [Compound 21], which IC50 is on record?
A: The IC50 was 2000 to 10000 nM.

Q: For `CN(C)CCCSc1nc2c(c(=O)n(C)c(=O)n2C)n1Cc1cccc(Br)c1` [Compound 22], which IC50 is on record?
A: The IC50 was 2000 to 10000 nM.

Q: For `CCc1cnc(CSc2nc3c(c(=O)n(C)c(=O)n3C)n2Cc2cccc(Br)c2)o1` [Compound 23], which IC50 is on record?
A: The IC50 was 100 to 500 nM.

Q: For `Cc1nc2c(c(=O)n(C)c(=O)n2C)n1Cc1cccc(Br)c1` [Compound 24, 7-(3-bromobenzyl)-1,3,8-trimethyl-1H-purine-2,6(3H,7H)-dione], which IC50 is on record?
A: Its IC50 is 2000 to 10000 nM.

Q: With `Cn1c(=O)c2c(nc(CC(=O)O)n2Cc2cccc(Br)c2)n(C)c1=O` [Compound 25, 2-(7-(3-bromobenzyl)-1,3-dimethyl-2,6-dioxo-2,3,6,7-tetrahydro-1H-purin-8-yl)acetic acid] as the compound, how does the IC50 read?
A: Its IC50 is 2000 to 10000 nM.

Q: `CCCOC(=O)Cc1nc2c(c(=O)n(C)c(=O)n2C)n1Cc1cccc(Br)c1` [Compound 26, Propyl-2-(7-(3-bromobenzyl)-1,3-dimethyl-2,6-dioxo-2,3,6,7-tetrahydro-1H-purin-8-yl)-acetate] was tested. Which IC50 did it give?
A: The IC50 was 2000 to 10000 nM.

Q: How did the IC50 turn out when `CCCNC(=O)Cc1nc2c(c(=O)n(C)c(=O)n2C)n1Cc1cccc(Br)c1` [Compound 27, 2-(7-(3-Bromobenzyl)-1,3-dimethyl-2,6-dioxo-2,3,6,7-tetrahydro-1H-purin-8-yl)-N-propylacetamide] was run?
A: Its IC50 is 2000 to 10000 nM.

Q: `CCOc1nc2c(c(=O)n(C)c(=O)n2C)n1Cc1cccc(Br)c1` [Compound 28, 7-(3-bromobenzyl)-8-ethoxy-1,3-dimethyl-1H-purine-2,6(3H,7H)-dione] was tested. Which IC50 did it give?
A: The IC50 was 2000 to 10000 nM.

Q: Which IC50 does the source give for `CN1CCN(C(=O)Cc2nc3c(c(=O)n(C)c(=O)n3C)n2Cc2cccc(Br)c2)CC1` [Compound 29] here?
A: The IC50 was 2000 to 10000 nM.

Q: For `C[C@H]1CCCN1c1ncc(-c2cccc(NC(=O)Cc3nc4c(c(=O)n(C)c(=O)n4C)n3Cc3cccc(Br)c3)n2)cn1` [Compound 30], which IC50 is on record?
A: The IC50 was 2000 to 10000 nM.

Q: With `Cn1c(=O)c2c(nc(/C=C/c3ccccc3)n2Cc2cccc(Br)c2)n(C)c1=O` [Compound 32] as the compound, how does the IC50 read?
A: The IC50 was 2000 to 10000 nM.

Q: For `Cn1c(=O)c2c(nc(CCc3ccccc3)n2Cc2cccc(Br)c2)n(C)c1=O` [Compound 33, 7-(3-bromobenzyl)-1,3-dimethyl-8-phenethyl-1H-purine-2,6(3H,7H)-dione], which IC50 is on record?
A: Its IC50 is 500 to 1000 nM.

Q: Which IC50 does the source give for `CCOC(=O)Cc1nc2c(c(=O)n(C)c(=O)n2C)n1Cc1cccc(Br)c1` [Compound 34, Ethyl 2-(7-(3-bromobenzyl)-1,3-dimethyl-2,6-dioxo-2,3,6,7-tetrahydro-1H-purin-8yl)acetate] here?
A: The IC50 was 2000 to 10000 nM.

Q: For `Cn1c(=O)c2c(nc(CO)n2Cc2cccc(Br)c2)n(C)c1=O` [Compound 35], which IC50 is on record?
A: The IC50 was 2000 to 10000 nM.
